# Key:
# [1] = tested on: bedstraw; experiment: Test B pre/postemergence bedstraw; format: in vivo, Galium aparine
# In short: (§1)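 Test chemicals in a non-phytotoxic solvent mixture with surfactant were sprayed preemergence onto planted seeds and postemergence onto plants 2 to 18 cm tall (1- to 4-leaf stage). After twelve to sixteen days in a greenhouse, injury was visually rated against untreated controls from 0 (no effect) to 10 (complete control).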
# [2] = tested on: blackgrass; experiment: Test B pre/postemergence blackgrass; format: in vivo, Alopecurus myosuroides
# In short: as §1
# [3] = tested on: surinam grass; experiment: Test B pre/postemergence surinam grass; format: in vivo, Brachiaria decumbens
# In short: as §1
# [4] = tested on: cocklebur; experiment: Test B pre/postemergence cocklebur; format: in vivo, Xanthium strumarium
# In short: as §1
# [5] = tested on: corn; experiment: Test B pre/postemergence corn; format: in vivo, Zea mays
# In short: as §1
# [6] = tested on: giant foxtail; experiment: Test B pre/postemergence giant foxtail; format: in vivo, Setaria faberii
# In short: as §1
# [7] = tested on: morningglory; experiment: Test B pre/postemergence morningglory; format: in vivo, Ipomoea hederacea
# In short: as §1
# [8] = tested on: pigweed; experiment: Test B pre/postemergence pigweed; format: in vivo, Amaranthus retroflexus
# In short: as §1
# [9] = tested on: rape; experiment: Test B pre/postemergence rape; format: in vivo, Brassica napus
# In short: as §1
# [10] = tested on: soybean; experiment: Test B pre/postemergence soybean; format: in vivo, Glycine max
# In short: as §1
# [11] = tested on: sugar beet; experiment: Test B pre/postemergence sugar beet; format: in vivo, Beta vulgaris
# In short: as §1
# [12] = tested on: velvetleaf; experiment: Test B pre/postemergence velvetleaf; format: in vivo, Abutilon theophrasti
# In short: as §1
# [13] = tested on: wheat; experiment: Test B pre/postemergence wheat; format: in vivo, Triticum aestivum
# In short: as §1
# [14] = tested on: wild oat; experiment: Test B pre/postemergence wild oat; format: in vivo, Avena fatua
# In short: as §1
# [15] = tested on: rice; experiment: Test B flood test rice; format: in vivo, Oryza sativa
# In short: (§2)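 Each value is a visual injury score relative to controls, with 10 meaning complete control and 0 no effect. Evaluation took place twelve to sixteen days after the 2-leaf-stage plants were treated and kept in the greenhouse.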
# [16] = tested on: smallflower flatsedge; experiment: Test B flood test smallflower flatsedge; format: in vivo, Cyperus difformis
# In short: as §2
# [17] = Preemergence, Rate 31 g/ha, visual rating, scale 0 to 10 (0 no effect, 10 complete control)
# [18] = Preemergence, Rate 62 g/ha, scale of 0 to 10 where 0 is no effect and 10 is complete control
# [19] = Rate 16 g/ha, Postemergence, scale 0 to 10, 0 no effect, 10 complete control
# [20] = Rate 16 g/ha, Preemergence, scale 0 to 10, 0 no effect, 10 complete control
# [21] = Rate 31 g/ha, Postemergence, scale 0 to 10
# [22] = Rate 62 g/ha, Postemergence, scale 0 to 10 (0 no effect, 10 complete control)
# [23] = Rate 125 g/ha, Postemergence, scale of 0 to 10 where 0 is no effect and 10 is complete control
# [24] = Rate 125 g/ha, Preemergence, scale of 0 to 10 where 0 is no effect and 10 is complete control
# [25] = Rate 16 g/ha, head printed Pre-emergence (flood test species), scale 0 to 10, 0 no effect, 10 complete control
# [26] = Rate 31 g/ha, Pre-emergence section (flood test species), scale 0 to 10
# [27] = Rate 62 g/ha, headed Pre-emergence (flood test species), scale 0 to 10 (0 no effect, 10 complete control)
# [28] = Rate 125 g/ha, Pre-emergence, flood test species, scale 0 to 10 where 0 is no effect and 10 is complete control
structure (smiles),measurement,setting,value
CC(C)N(C(=O)n1oc(=O)n(CCCF)c1=O)c1ccc(F)cc1 [Compound 287],Bedstraw plant response rating,[1]; [17],4
same,Bedstraw plant response rating,[1]; [18],9
same,Bedstraw plant response rating,[1]; [19],0
same,Bedstraw plant response rating,[1]; [20],0
same,Bedstraw plant response rating,[1]; [21],0
same,Bedstraw plant response rating,[1]; [22],4
same,Bedstraw plant response rating,[1]; [23],8
same,Bedstraw plant response rating,[1]; [24],10
same,Blackgrass plant response rating,[2]; [17],7
same,Blackgrass plant response rating,[2]; [18],10
same,Blackgrass plant response rating,[2]; [19],0
same,Blackgrass plant response rating,[2]; [20],0
same,Blackgrass plant response rating,[2]; [21],8
same,Blackgrass plant response rating,[2]; [22],8
same,Blackgrass plant response rating,[2]; [23],9
same,Blackgrass plant response rating,[2]; [24],10
same,B. signalgrass plant response rating,[3]; [17],3
same,B. signalgrass plant response rating,[3]; [18],6
same,B. signalgrass plant response rating,[3]; [19],0
same,B. signalgrass plant response rating,[3]; [20],0
same,B. signalgrass plant response rating,[3]; [21],0
same,B. signalgrass plant response rating,[3]; [22],0
same,B. signalgrass plant response rating,[3]; [23],2
same,B. signalgrass plant response rating,[3]; [24],10
same,Cocklebur plant response rating,[4]; [17],0
same,Cocklebur plant response rating,[4]; [18],0
same,Cocklebur plant response rating,[4]; [19],0
same,Cocklebur plant response rating,[4]; [20],0
same,Cocklebur plant response rating,[4]; [21],0
same,Cocklebur plant response rating,[4]; [22],0
same,Cocklebur plant response rating,[4]; [23],1
same,Cocklebur plant response rating,[4]; [24],0
same,Corn plant response rating,[5]; [17],0
same,Corn plant response rating,[5]; [18],0
same,Corn plant response rating,[5]; [19],0
same,Corn plant response rating,[5]; [20],0
same,Corn plant response rating,[5]; [21],0
same,Corn plant response rating,[5]; [22],0
same,Corn plant response rating,[5]; [23],0
same,Corn plant response rating,[5]; [24],0
same,Giant foxtail plant response rating,[6]; [17],9
same,Giant foxtail plant response rating,[6]; [18],10
same,Giant foxtail plant response rating,[6]; [19],0
same,Giant foxtail plant response rating,[6]; [20],8
same,Giant foxtail plant response rating,[6]; [21],2
same,Giant foxtail plant response rating,[6]; [22],7
same,Giant foxtail plant response rating,[6]; [23],8
same,Giant foxtail plant response rating,[6]; [24],10
same,Morningglory plant response rating,[7]; [17],0
same,Morningglory plant response rating,[7]; [18],0
same,Morningglory plant response rating,[7]; [19],2
same,Morningglory plant response rating,[7]; [20],0
same,Morningglory plant response rating,[7]; [21],2
same,Morningglory plant response rating,[7]; [22],2
same,Morningglory plant response rating,[7]; [23],2
same,Morningglory plant response rating,[7]; [24],0
same,Redroot pigweed plant response rating,[8]; [17],4
same,Redroot pigweed plant response rating,[8]; [18],5
same,Redroot pigweed plant response rating,[8]; [19],0
same,Redroot pigweed plant response rating,[8]; [20],0
same,Redroot pigweed plant response rating,[8]; [21],0
same,Redroot pigweed plant response rating,[8]; [22],2
same,Redroot pigweed plant response rating,[8]; [23],6
same,Redroot pigweed plant response rating,[8]; [24],8
same,Rape plant response rating,[9]; [17],4
same,Rape plant response rating,[9]; [18],4
same,Rape plant response rating,[9]; [19],0
same,Rape plant response rating,[9]; [20],0
same,Rape plant response rating,[9]; [21],0
same,Rape plant response rating,[9]; [22],0
same,Rape plant response rating,[9]; [23],0
same,Rape plant response rating,[9]; [24],8
same,Soybean plant response rating,[10]; [17],0
same,Soybean plant response rating,[10]; [18],0
same,Soybean plant response rating,[10]; [19],1
same,Soybean plant response rating,[10]; [20],0
same,Soybean plant response rating,[10]; [22],1
same,Soybean plant response rating,[10]; [23],3
same,Soybean plant response rating,[10]; [24],6
same,Sugarbeets plant response rating,[11]; [17],0
same,Sugarbeets plant response rating,[11]; [18],3
same,Sugarbeets plant response rating,[11]; [19],0
same,Sugarbeets plant response rating,[11]; [20],0
same,Sugarbeets plant response rating,[11]; [22],0
same,Sugarbeets plant response rating,[11]; [23],0
same,Sugarbeets plant response rating,[11]; [24],6
same,Velvetleaf plant response rating,[12]; [17],3
same,Velvetleaf plant response rating,[12]; [18],6
same,Velvetleaf plant response rating,[12]; [19],0
same,Velvetleaf plant response rating,[12]; [20],1
same,Velvetleaf plant response rating,[12]; [22],0
same,Velvetleaf plant response rating,[12]; [23],4
same,Velvetleaf plant response rating,[12]; [24],7
same,Wheat plant response rating,[13]; [17],0
same,Wheat plant response rating,[13]; [18],0
same,Wheat plant response rating,[13]; [19],0
same,Wheat plant response rating,[13]; [20],0
same,Wheat plant response rating,[13]; [22],5
same,Wheat plant response rating,[13]; [23],5
same,Wheat plant response rating,[13]; [24],7
same,Wild oats plant response rating,[14]; [17],1
same,Wild oats plant response rating,[14]; [18],8
same,Wild oats plant response rating,[14]; [19],0
same,Wild oats plant response rating,[14]; [20],0
same,Wild oats plant response rating,[14]; [22],2
same,Wild oats plant response rating,[14]; [23],3
same,Rice plant response rating,[15]; [25],0
same,Rice plant response rating,[15]; [26],0
same,Rice plant response rating,[15]; [27],0
same,Rice plant response rating,[15]; [28],0
same,S. Flatsedge plant response rating,[16]; [25],0
same,S. Flatsedge plant response rating,[16]; [26],0
same,S. Flatsedge plant response rating,[16]; [27],0
same,S. Flatsedge plant response rating,[16]; [28],0
